From ChEMBL document CHEMBL4385611, “Difluoromethylene at the γ-Lactam α-Position Improves 11-Deoxy-8-aza-PGE1 Series EP4 Receptor Binding and Activity: 11-Deoxy-10,10-difluoro-8-aza-PGE1 Analog (KMN-159) as a Potent EP4 Agonist” (J Med Chem, 2019) come the findings set out here.

The nature of series [1]: Mutagenicity in Salmonella typhimurium TA1535 after 96 hrs in absence of rat liver S9 fraction by Ames test. Conditions: salmonella enterica subsp. enterica serovar typhimurium, s9, 96 h. The format is toxicity.
The target in the next series is T1, Cytochrome P450 2B6 (Homo sapiens, UniProt P20813).
T1 sequence (P20813 whole entry): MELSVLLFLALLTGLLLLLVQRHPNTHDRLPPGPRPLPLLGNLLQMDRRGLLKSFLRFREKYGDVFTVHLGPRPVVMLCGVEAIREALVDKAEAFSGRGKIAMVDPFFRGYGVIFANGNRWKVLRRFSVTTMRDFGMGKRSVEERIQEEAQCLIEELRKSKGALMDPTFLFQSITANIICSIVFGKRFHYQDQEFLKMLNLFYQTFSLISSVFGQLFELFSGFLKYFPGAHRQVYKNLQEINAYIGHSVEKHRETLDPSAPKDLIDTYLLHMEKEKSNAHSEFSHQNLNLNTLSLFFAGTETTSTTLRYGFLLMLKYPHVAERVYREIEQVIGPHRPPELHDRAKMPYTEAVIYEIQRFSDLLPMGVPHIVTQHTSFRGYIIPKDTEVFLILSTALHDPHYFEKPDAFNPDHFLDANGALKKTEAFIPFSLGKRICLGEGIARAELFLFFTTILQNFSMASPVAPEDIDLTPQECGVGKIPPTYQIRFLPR
The series is described as follows: Inhibition of CYP2B6 in human liver microsomes using bupropion as substrate at 10 uM after 10 mins by HPLC-MS/MS analysis. The format is ADME. On the technique in general: Liver microsomes are vesicles of endoplasmic reticulum, rich in cytochrome P450 enzymes.

Series [2] is described as follows: Intrinsic clearance in human hepatocytes at 0.1 uM by HPLC-MS/MS analysis. Format: ADME, cell-based, Hepatocyte.
For series [3], the target named is T2, Prostaglandin E2 receptor EP2 subtype (Homo sapiens, UniProt P43116). The series is described as follows: Agonist activity at human EP2 receptor expressed in HEK293T/17 cells assessed as increase in intracellular cAMP level at 10 uM incubated for 30 mins by ELISA relative to control. The format is functional, cell-based. In general terms: cAMP levels reflect the balance of adenylyl cyclase and phosphodiesterase activity.
T2 sequence (P43116 whole entry): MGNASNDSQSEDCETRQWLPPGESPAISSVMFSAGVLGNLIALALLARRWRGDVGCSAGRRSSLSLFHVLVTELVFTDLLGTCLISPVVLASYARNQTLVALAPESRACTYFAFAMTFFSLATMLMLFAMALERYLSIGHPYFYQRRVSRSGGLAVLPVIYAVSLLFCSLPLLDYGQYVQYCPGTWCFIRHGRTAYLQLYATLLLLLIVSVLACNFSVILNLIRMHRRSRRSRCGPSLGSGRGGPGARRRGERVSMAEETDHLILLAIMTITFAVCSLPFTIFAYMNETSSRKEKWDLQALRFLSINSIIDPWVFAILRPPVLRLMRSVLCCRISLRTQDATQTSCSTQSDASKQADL

A short description of series [4]: Apparent permeability across basolateral to apical side in human Caco2 cells at 5 uM after 120 mins by LC-MS/MS analysis. Conditions: Caco-2; call rule not given here. The format is ADME, cell-based.
Series [5] can be described thus: Genotoxicity in Salmonella typhimurium TA98 at 0.6 to 100 uM after 96 hrs by photometry analysis. The format is toxicity. Conditions: salmonella enterica subsp. enterica serovar typhimurium.
The target of series [6] is Prostaglandin E2 receptor EP4 subtype (Homo sapiens, UniProt P35408). As to the kind of experiment: Agonist activity at human EP4 receptor expressed in HEK293T/17 cells assessed as increase in intracellular cAMP level incubated for 30 mins by ELISA. Format: functional, cell-based.
Prostaglandin E2 receptor EP4 subtype, sequence (P35408 whole entry): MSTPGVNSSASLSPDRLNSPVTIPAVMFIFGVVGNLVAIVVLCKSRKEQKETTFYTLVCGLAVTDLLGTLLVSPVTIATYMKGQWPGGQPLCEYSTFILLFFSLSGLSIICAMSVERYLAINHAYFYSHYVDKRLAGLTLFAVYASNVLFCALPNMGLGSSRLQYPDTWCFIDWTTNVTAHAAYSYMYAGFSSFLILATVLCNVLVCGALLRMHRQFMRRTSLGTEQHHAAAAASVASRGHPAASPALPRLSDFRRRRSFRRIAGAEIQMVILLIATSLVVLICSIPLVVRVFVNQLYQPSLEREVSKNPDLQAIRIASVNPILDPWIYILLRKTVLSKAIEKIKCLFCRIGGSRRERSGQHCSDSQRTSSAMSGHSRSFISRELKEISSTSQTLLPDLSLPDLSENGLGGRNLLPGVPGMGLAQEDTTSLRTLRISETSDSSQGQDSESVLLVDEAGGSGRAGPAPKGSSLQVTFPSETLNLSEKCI
The next series relates to CHO-K1. The series is described as follows: Clastogenic activity in CHOK1 cells after 4 hrs in absence of S9 fraction by micronucleus assay. The format is toxicity, cell-based, Cricetulus griseus. Conditions: chinese hamster, cho-k1, 4 h.
Series [7] has as its target T3, Prostaglandin E2 receptor EP3 subtype (Homo sapiens, UniProt P43115).
T3 sequence (P43115 whole entry): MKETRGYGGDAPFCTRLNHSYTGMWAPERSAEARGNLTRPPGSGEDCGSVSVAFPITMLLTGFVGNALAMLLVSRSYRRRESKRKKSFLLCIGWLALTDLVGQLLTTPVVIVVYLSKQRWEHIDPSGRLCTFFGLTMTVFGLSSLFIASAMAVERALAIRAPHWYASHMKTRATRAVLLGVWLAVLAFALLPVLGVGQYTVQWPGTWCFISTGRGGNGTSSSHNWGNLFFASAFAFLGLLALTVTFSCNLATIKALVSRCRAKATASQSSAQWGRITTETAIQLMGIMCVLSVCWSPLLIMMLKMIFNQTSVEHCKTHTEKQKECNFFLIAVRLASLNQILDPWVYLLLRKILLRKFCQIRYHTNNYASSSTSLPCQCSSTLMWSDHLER
As to the kind of experiment: Displacement of [3H]PGE2 from human recombinant EP3 receptor expressed in HEK293 cell membranes after 120 mins by liquid scintillation counting method.

The target in another series is Cytochrome P450 3A (Homo sapiens, UniProt P08684+P20815+Q9HB55+P24462). The series is described as follows: Inhibition of CYP3A in human liver microsomes using midazolam as substrate at 10 uM after 10 mins by HPLC-MS/MS analysis. Format: ADME.
The next series concerns the target T4, Cytochrome P450 1A (Homo sapiens, UniProt P04798+P05177).
T4 sequence (P04798 whole entry): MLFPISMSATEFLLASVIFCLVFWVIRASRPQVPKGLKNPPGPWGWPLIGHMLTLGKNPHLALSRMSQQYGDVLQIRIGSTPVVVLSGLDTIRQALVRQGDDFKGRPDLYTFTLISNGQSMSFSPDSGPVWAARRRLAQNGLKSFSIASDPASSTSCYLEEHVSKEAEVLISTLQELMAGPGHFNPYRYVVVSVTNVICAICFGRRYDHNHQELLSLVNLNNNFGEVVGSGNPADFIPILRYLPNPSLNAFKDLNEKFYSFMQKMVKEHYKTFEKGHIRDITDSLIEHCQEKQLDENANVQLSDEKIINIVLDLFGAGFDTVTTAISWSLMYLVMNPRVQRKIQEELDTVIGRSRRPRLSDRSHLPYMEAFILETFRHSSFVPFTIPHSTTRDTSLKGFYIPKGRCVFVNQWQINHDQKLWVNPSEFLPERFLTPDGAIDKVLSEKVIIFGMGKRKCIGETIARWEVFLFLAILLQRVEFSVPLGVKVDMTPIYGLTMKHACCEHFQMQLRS
T4 sequence (P05177 whole entry): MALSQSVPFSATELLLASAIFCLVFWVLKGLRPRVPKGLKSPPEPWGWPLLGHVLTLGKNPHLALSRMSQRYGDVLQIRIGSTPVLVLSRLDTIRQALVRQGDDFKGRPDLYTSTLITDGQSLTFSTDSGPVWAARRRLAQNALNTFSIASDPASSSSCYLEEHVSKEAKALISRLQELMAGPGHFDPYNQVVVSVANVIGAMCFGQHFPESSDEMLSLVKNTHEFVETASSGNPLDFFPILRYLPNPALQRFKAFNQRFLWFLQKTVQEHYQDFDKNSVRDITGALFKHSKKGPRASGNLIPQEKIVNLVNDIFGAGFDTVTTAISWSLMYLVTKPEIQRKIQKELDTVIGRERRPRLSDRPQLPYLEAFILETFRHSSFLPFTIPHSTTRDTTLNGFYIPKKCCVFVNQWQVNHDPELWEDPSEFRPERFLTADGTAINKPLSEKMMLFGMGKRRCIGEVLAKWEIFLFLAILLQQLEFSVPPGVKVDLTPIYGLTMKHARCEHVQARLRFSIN
The series is described as follows: Inhibition of CYP1A in human liver microsomes using phenacetin as substrate at 10 uM after 10 mins by HPLC-MS/MS analysis. Format: ADME.

A further series deals with Cytochrome P450 2C19 (Homo sapiens, UniProt P33261). The series is described as follows: Inhibition of CYP2C19 in human liver microsomes using omeprazole as substrate at 10 uM after 10 mins by HPLC-MS/MS analysis. Format: ADME.
Cytochrome P450 2C19, sequence (P33261 whole entry): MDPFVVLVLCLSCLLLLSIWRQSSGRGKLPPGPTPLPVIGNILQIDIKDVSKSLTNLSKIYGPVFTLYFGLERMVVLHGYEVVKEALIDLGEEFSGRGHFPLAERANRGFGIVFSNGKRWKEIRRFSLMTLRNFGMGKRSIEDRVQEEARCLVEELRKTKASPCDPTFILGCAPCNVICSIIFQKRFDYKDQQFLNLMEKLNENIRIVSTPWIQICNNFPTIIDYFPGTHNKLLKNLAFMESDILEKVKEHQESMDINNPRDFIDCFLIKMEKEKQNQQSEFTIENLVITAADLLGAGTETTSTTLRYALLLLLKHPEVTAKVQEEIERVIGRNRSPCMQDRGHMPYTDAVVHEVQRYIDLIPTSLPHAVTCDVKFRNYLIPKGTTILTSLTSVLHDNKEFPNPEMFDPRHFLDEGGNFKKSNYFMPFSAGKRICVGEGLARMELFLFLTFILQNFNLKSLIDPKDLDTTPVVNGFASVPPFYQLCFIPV
The next series concerns the target Cytochrome P450 2D6 (Homo sapiens, UniProt P10635). As to the kind of experiment: Inhibition of CYP2D6 in human liver microsomes using dextromethorphan as substrate at 10 uM after 10 mins by HPLC-MS/MS analysis. Format: ADME.
Series [8] addresses T2, Prostaglandin E2 receptor EP2 subtype. The series is described as follows: Agonist activity at human EP2 receptor expressed in HEK293T/17 cells assessed as increase in intracellular cAMP level incubated for 30 mins by ELISA. The format is functional, cell-based.
Series [9] is described as follows: Half-life in human liver microsomes at 0.1 uM by HPLC-MS/MS analysis. Format: ADME, Microsome.

Some results are limits rather than exact numbers.

Cytochrome P450 2D6, sequence (P10635 whole entry): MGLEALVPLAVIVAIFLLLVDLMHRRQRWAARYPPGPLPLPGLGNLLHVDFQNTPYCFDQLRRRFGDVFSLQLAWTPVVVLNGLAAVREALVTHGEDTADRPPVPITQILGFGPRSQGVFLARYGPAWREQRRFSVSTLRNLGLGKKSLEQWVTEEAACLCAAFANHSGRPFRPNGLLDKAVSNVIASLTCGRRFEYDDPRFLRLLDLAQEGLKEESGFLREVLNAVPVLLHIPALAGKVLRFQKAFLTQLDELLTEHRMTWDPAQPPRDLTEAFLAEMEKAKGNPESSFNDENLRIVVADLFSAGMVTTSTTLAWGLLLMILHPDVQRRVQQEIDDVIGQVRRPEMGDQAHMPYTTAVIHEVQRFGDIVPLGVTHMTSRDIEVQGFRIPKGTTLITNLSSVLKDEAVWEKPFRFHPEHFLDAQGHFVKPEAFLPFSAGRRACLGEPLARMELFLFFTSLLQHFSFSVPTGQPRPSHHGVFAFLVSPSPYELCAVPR

As a reminder, the Papp B→A is the apparent permeability from the basolateral to the apical side of a cell layer. A word on the EC50: it is the concentration needed to bring the measured effect to its halfway point. For orientation: Ki means the equilibrium dissociation constant of an inhibitor or competing ligand from its target. Broadly, the half-life is how long it takes for the measured level to halve. Read a high half-life as slow loss. Take `CCC#CC[C@H](C)[C@H](O)/C=C/[C@H]1CC(F)(F)C(=O)N1CCCCCCC(=O)O`: the Activity entry in series [1] is “Non-Toxic”; in series [3], under 50%; in series [5], “Non-Toxic”; with CHO-K1 it was “Non-Toxic”. In addition, the “inhibition (INH)” value against Cytochrome P450 2B6, against Cytochrome P450 3A, on Cytochrome P450 1A, at Cytochrome P450 2C19 and against Cytochrome P450 2D6 was “Not Active” each time. This compound also displayed a CLH in series [2] of under 8.2 µL/min/10^6 cells. The apparent permeability from basolateral to apical (Papp B→A) at 2 h, 5 µM in [4] was 14.5 ×10⁻⁶ cm/s. Besides, the EC50 in series [6] is 2.63 nM; in [8], over 10000 nM. The inhibition constant (Ki) in [7] stood at 258 nM. The half-life at 0.1 µM in [9] is over 1 h.

As for `CCC#CC[C@H](C)[C@H](O)/C=C/[C@H]1CCC(=O)N1CCCCCCC(=O)O`, the Activity result in series [1] is “Non-Toxic”; in series [3], under 50%; in [5], “Non-Toxic”; in the series on CHO-K1, “Non-Toxic”. The “inhibition (INH)” value against Cytochrome P450 2B6, at Cytochrome P450 3A, at Cytochrome P450 1A, against Cytochrome P450 2C19 and against Cytochrome P450 2D6 was “Not Active” each time. The compound also came in with a CLH in series [2] of under 8.2 µL/min/10^6 cells. Besides, the Papp B→A at 2 h, 5 µM in series [4] was determined as 10.1 ×10⁻⁶ cm/s. For the same compound, the concentration for a half-maximal effect (EC50) was 19.9 nM in series [6] and over 10000 nM in series [8]. Also, in series [7], the Ki amounted to 880 nM. This compound registered a half-life at 0.1 µM in [9] of over 1 h.
